Blank lines part the entries; values can stand above or below the compound they belong to. Active and inactive are the calls of the source.
Legend:
[1] = growth suppression of beta-catenin-knockout colon cells, dose response, cell-based, HCT116, human colon tumor (AID 1045); assay type: functional;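 also: HCT116 colon tumor cells with beta catenin knocked out; cells exposed to compound for 60 hours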
Cannabinoid receptor 2 [2] = target: T1, Cannabinoid receptor 2 (Homo sapiens, UniProt P34972); experiment: SAR analysis of antagonists of the Cannabinoid Receptor 2 using an Image-Based Assay. [Related pubchem assays (depositor defined):AID2013, AID2026]; assay type: functional
T1 sequence (P34972 whole entry): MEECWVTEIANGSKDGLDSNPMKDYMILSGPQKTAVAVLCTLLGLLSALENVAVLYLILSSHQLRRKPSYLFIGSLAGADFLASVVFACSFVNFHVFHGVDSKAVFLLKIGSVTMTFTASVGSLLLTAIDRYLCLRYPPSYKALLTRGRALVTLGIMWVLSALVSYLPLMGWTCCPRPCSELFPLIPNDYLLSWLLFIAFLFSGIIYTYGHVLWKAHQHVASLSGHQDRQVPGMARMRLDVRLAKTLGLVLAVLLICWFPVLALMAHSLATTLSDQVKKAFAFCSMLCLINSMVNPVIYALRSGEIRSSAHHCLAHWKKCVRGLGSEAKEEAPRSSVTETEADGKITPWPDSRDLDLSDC

[3] = cytotoxicity toward NIH3T3 fibroblasts, dose response, counter-screen, cell-based, ATP luminescence, mouse fibroblasts (AID 2010); assay type: functional;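 also: cells exposed to compound for about 90 hours before reading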
[4] = target: T2, G-protein coupled receptor 55 (Homo sapiens, UniProt Q9Y2T6); experiment: GPR55 antagonists blocking LPI-driven arrestin recruitment, primary screen, imaging, U2OS, beta-arrestin-GFP, LPI agonist (AID 2013); assay type: functional;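 also: antagonist potency measured as reduced agonist-driven arrestin aggregation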
T2 sequence (Q9Y2T6 whole entry): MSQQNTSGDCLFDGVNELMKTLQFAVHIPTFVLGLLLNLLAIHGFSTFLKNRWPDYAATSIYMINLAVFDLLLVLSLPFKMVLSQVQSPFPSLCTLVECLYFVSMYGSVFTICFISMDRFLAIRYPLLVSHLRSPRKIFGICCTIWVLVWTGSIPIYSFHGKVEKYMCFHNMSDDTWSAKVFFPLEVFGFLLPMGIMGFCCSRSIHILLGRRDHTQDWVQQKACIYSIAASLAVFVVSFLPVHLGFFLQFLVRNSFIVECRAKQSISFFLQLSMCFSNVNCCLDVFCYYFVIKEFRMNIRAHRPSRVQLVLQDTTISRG

[5] = target: T3, G-protein coupled receptor 35 (Homo sapiens, UniProt Q9HC97); experiment: SAR analysis of Agonists of the GPR35 Receptor using an Image-Based Assay - Set 2. [Related pubchem assays (depositor defined):AID2013, AID2026]; assay type: functional
T3 sequence (Q9HC97 whole entry): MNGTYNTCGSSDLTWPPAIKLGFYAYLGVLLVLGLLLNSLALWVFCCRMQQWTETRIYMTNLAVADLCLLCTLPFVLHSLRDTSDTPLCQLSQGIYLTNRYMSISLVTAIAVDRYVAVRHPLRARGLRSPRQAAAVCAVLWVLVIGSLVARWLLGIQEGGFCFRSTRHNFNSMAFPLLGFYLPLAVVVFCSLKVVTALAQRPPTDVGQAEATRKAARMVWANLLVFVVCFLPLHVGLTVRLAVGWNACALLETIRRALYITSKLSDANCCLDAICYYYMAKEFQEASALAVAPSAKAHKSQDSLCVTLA

Cannabinoid receptor 1 [6] = target: T4, Cannabinoid receptor 1 (Homo sapiens, UniProt P21554); experiment: SAR analysis of antagonists of the Cannabinoid Receptor 1 using an Image-Based Assay - Set 2. [Related pubchem assays (depositor defined):AID2013, AID2026]; assay type: functional
T4 sequence (P21554 whole entry): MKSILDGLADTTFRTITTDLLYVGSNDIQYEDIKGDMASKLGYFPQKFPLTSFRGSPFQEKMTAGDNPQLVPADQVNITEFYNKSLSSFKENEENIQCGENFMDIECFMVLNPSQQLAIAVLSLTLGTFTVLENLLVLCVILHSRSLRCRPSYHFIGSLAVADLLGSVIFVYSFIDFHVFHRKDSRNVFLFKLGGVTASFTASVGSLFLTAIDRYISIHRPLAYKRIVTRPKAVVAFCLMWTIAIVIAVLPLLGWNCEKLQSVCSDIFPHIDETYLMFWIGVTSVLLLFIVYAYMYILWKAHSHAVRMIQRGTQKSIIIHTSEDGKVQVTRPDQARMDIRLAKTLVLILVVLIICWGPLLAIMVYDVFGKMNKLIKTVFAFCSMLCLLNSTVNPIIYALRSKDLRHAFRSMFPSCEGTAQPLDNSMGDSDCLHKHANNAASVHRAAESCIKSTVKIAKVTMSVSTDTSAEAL

[7] = growth suppression of PTEN-null colon cells, dose response, cell-based, HCT116 PTEN knockout (AID 1047); assay type: functional;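 also: HCT116 colon tumor cells with PTEN knocked out; cells exposed to compound for 60 hours before readout; potency for loss of cell viability measured by luminescence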
[8] = target: T3, G-protein coupled receptor 35; experiment: SAR analysis of Antagonists of the GPR35 Receptor using an Image-Based Assay - Set 3. [Related pubchem assays (depositor defined):AID2013, AID2026]; assay type: functional
Cannabinoid receptor 2 [9] = target: T1, Cannabinoid receptor 2; experiment: SAR analysis of agonists of the Cannabinoid Receptor 2 using an Image-Based Assay. [Related pubchem assays (depositor defined):AID2013, AID2026]; assay type: functional
[10] = inhibitors of intracellular T. cruzi replication, confirmation, NIH3T3 host cells, beta-gal luminescence (AID 2044); assay type: functional, cell-based;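 also: intracellular parasites grown in NIH/3T3 mouse fibroblasts as host cells; luminescent beta-galactosidase reporter signal from transgenic T. cruzi replicating inside host cells; inhibitors lower the luminescence signal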
Cannabinoid receptor 1 [11] = target: T4, Cannabinoid receptor 1; experiment: SAR analysis of agonists of the Cannabinoid Receptor 1 using an Image-Based Assay - Set 2. [Related pubchem assays (depositor defined):AID2013, AID2026]; assay type: functional
[12] = target: T2, G-protein coupled receptor 55; experiment: GPR55 antagonist potency of analogs, SAR follow-up, imaging, U2OS, beta-arrestin-GFP, LPI agonist, set 2 (AID 2820); assay type: functional
[13] = target: T5, Kappa-type opioid receptor (Homo sapiens, UniProt P41145); experiment: KOR agonist analogs, arrestin-GFP redistribution, SAR follow-up, imaging, image-based, set 3 (AID 488833); assay type: functional
T5 sequence (P41145 whole entry): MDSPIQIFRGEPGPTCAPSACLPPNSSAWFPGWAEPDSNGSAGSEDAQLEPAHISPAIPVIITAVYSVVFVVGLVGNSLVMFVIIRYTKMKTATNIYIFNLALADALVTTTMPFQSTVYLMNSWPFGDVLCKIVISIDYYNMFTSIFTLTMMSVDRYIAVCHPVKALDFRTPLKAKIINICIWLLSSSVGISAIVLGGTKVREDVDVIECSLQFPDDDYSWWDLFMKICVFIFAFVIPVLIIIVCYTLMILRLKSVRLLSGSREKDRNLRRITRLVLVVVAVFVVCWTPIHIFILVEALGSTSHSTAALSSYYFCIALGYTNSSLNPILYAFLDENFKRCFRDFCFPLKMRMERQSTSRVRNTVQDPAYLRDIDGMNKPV

[14] = target: Delta-type opioid receptor (Homo sapiens, UniProt P41143); experiment: SAR Analysis of Agonists of the DOR Receptor using an Image-Based Assay - Set 3. [Related pubchem assays (depositor defined):AID1777, AID1786]; assay type: functional
Delta-type opioid receptor, sequence (P41143 whole entry): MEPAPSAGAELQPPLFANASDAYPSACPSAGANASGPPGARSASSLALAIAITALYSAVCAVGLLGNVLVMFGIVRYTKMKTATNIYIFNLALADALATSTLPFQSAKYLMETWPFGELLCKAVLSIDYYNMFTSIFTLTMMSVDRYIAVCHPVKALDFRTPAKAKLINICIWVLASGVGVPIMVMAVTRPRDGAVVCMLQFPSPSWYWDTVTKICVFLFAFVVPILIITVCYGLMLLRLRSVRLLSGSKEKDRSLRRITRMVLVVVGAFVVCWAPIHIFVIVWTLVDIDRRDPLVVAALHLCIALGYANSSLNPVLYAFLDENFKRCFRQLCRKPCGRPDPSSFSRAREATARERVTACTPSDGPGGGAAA

[15] = target: T5, Kappa-type opioid receptor; experiment: SAR analysis of small molecule agonists of the kappa opioid receptor via a luminescent beta-arrestin assay - Set 3. [Related pubchem assays (depositor defined):AID1777, AID1785, AID1786, AID1966, AID2133, AID2136, AID2284, AID2500]; assay type: functional
Mu-type opioid receptor = Mu-type opioid receptor (Homo sapiens, UniProt P35372); experiment: SAR Analysis of Agonists of the MOR Receptor using an Image-Based Assay - Set 3. [Related pubchem assays (depositor defined):AID1777, AID1785, AID1786, AID1966, AID2133, AID2136, AID2284, AID2285, AID2352]; assay type: functional
Mu-type opioid receptor, sequence (P35372 whole entry): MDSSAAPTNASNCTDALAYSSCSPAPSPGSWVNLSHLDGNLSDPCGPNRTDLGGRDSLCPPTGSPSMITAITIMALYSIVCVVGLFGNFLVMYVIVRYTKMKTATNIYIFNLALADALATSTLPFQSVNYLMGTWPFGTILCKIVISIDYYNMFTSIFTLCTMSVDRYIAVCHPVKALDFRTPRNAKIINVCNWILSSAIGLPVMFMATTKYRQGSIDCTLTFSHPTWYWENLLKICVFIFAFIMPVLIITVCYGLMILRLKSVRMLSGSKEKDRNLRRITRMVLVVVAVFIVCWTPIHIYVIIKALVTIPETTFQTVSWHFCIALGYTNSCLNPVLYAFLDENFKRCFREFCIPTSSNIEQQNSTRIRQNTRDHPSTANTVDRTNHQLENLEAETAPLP

[16] = target: Phosphoethanolamine/phosphocholine phosphatase (Homo sapiens, UniProt Q8TCT1); experiment: SAR assay for compounds that inhibit PHOSPHO1. [Related pubchem assays (depositor defined):AID1545, AID1565, AID1574]
Phosphoethanolamine/phosphocholine phosphatase, sequence (Q8TCT1 whole entry): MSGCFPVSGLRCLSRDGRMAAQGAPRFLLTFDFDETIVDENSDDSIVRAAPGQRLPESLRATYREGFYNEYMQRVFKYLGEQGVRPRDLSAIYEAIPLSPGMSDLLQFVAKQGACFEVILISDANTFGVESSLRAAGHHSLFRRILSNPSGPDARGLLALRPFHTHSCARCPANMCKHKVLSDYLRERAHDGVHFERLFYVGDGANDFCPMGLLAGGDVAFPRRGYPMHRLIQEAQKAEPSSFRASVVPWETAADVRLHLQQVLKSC

Phosphomannomutase 2 = Phosphomannomutase 2 (Homo sapiens, UniProt O15305); experiment: Counter screen SAR assay for PMM2 inhibitors via a fluorescence intensity assay. [Related pubchem assays (depositor defined):AID1545, AID1574]
Phosphomannomutase 2, sequence (O15305 whole entry): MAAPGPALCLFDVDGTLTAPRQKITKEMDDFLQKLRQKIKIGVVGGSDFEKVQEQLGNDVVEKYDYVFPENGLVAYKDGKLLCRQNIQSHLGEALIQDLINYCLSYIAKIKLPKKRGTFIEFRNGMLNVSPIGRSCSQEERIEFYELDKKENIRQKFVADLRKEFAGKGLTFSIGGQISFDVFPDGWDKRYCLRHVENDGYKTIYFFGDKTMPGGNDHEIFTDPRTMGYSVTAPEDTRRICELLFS

[17] = target: T6, Mannose-6-phosphate isomerase (Homo sapiens, UniProt P34949); experiment: PMI enzyme inhibitors, confirmation, biochemical, fluorescence intensity (AID 1535)
T6 sequence (P34949 whole entry): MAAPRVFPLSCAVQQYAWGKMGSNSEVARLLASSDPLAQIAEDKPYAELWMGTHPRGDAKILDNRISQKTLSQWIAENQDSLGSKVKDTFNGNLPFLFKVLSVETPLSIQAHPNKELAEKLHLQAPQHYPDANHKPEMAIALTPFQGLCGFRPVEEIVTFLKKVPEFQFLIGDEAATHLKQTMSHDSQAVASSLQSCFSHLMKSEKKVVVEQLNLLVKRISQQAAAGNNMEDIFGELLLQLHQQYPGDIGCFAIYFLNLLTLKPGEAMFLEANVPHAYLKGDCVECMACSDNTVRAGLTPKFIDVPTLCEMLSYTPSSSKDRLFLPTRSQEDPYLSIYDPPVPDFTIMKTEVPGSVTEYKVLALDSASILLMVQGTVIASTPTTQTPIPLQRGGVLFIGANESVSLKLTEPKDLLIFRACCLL

Structure (SMILES): CCC(C)NS(=O)(=O)c1ccc(NC(=O)C(Sc2ccccc2)c2ccccc2)cc1 (centres undefined)
EC50 [1]: 14.5 µM (active)
IC50 (Cannabinoid receptor 2 [2]): > 32 µM (inactive)
EC50 [3]: > 60 µM (not active)
IC50 [4]: 0.592 µM (active)
EC50 [5]: > 32 µM (inactive)
IC50 (Cannabinoid receptor 1 [6]): 0.975 µM (active)
EC50 [7]: 13.6 µM (active)
IC50 [8]: > 32 µM (inactive)
EC50 (Cannabinoid receptor 2 [9]): > 32 µM (inactive)
EC50 [10]: 2.34 µM (active)
EC50 (Cannabinoid receptor 1 [11]): > 32 µM (inactive)
IC50 [12]: 1.94 µM (active)

EC50 [13]: 18.7 µM (inactive)
EC50 [14]: > 64 µM (inactive)
EC50 [15]: 6.62 µM (active)
EC50 (Mu-type opioid receptor): > 32 µM (inactive)
Structure (SMILES): COC(=O)c1ccc(CSc2nnc(-c3ccccn3)n2Cc2ccco2)cc1

IC50 [16]: 0.755 µM (active)
IC50 (Phosphomannomutase 2): 26.9 µM (active)
IC50 [17]: 24.1 µM (active)
Structure (SMILES): CCN(CC)CCOC(=O)c1ccc(-n2sc3ccccc3c2=O)cc1
